Literature values as cited in patent US20090325807A1, “Method of Improving Plant Growth” (Bayer Cropscience AG, priority 2004, published 2009).

Test system: cucumis melo L.
Details: in the absence of insects

For O=[N+]([O-])NC1=NCCN1Cc1ccc(Cl)nc1 [imidacloprid, Imidacloprid], which growth effect is on record?
Its growth effect is “no growth effect”.
